This is an account of results in article PMC10728220, “Novel 3-(pyrazol-4-yl)-2-(1H-indole-3-carbonyl)acrylonitrile derivatives induce intrinsic and extrinsic apoptotic death mediated P53 in HCT116 colon carcinoma” (Scientific Reports, 2023).

Converted amounts (≈) assume the structure as drawn. Some results are limits rather than exact numbers.

In test [1] the test system is colorectal carcinoma (HCT116). Nature of the test: Cytotoxic MTT assay, HCT116. Format: cell-based, human. As for the experimental part: (§1) MTT protocol was performed to study the viability of cells after treatment with the tested compounds. The studied cell lines (A549 and HCT116) were cultured and grown in RPMI‐1640 media, while HFB4 cells were reserved in DMEM‐F12 media. Both media were supplemented with 10% FBS, 1% L‐glutamine, and 1% antibiotic–antimycotic mixture. The cell lines were grown at conditions of 37 °C and 5% CO2. 10 × 10^3 of A549, and HCT116 cells and the same count of normal melanocytes (HFB4) were cultured in a 96‐well plate. The selected cultured cells were kept at 37°C and 5% CO2 overnight. Then, the medium was discarded after 24 h of incubation, and 100 µL from different concentrations of the studied compounds dissolved in fresh medium without serum, with final concentrations of 100, 50, 25, 12.5, 6.25, 3.125, 1.56, and 0.78 µg/mL was added. The treated cells were then incubated for 48 h. After that, 50 µL of MTT was added into each well for 4 h for the formazan crystals to be formed. Finally, 200 µl of 10% sodium dodecyl sulphate (SDS) was added to each well, and plates were kept at room temperature overnight to allow the reaction to be stopped. The optical density at 575 nm was read using a microplate multi-well reader, and the percentage of cell viability was calculated. The dose–response curve was drawn to calculate the IC50 values for each compound using the prism GraphPad 5 program, [84]. 5 Fluorouracil, a commercial anticancer drug was used as a reference drug (positive control). Negative untreated cell control was used in this assay.
(In general: Tetrazolium assays rely on reduction of a dye to a coloured formazan, in cell work by metabolically active cells.)

A further test relates to CDK4. Nature of the test: RT-PCR gene expression, CDK4, in HCT116. The test is classed as cell-based, human. Conditions: HCT116, 6.76 µg/mL, 48 h, relative to untreated control. The method, then: (§2) In this current research, relative gene expression related to apoptosis should be studied well because they were very interesting to understand the effect of our selected compound on this important biological process. HCT116 cells were treated with chalcone 7f (6.76µg/mL) for 48 h, and then subjected to qPCR analysis regarding control samples. The effect of chalcone 7f on the expression level of (Bax, p53, Bcl2, and CDK4) genes was assessed using the qPCR technique. […] As indicated in this schematic diagram, the expression of apoptotic genes (Bax and P53) was enhanced by the effect of chalcone 7f to reach (3.662, and 5.435) respectively, relative to the control.
(§3) Total RNA was extracted from the compound 7f-treated HCT116 cells and the untreated cells using the RNA Purification Kit GeneJET (Thermo scientific, ON, Canada) 0.1 µg of the extracted RNA was reverse transcribed into complementary DNA (cDNA) using High-Capacity cDNA Reverse Transcription Kit (Thermo Scientific, ON, Canada). qPCR was done using Brilliant SYBR Green qPCR master mix (Applied Biosystems, San Francisco, CA, USA) in One Step Plus Real-Time PCR System (Applied Biosystems, San Francisco, CA, USA). […] The relative gene expression was determined using the 2^−ΔΔCt equation after normalization to the expression of β-actin (housekeeping gene) (Qiagen, CA, USA)(10 pmol/µL)[85], [86]. […]

The next test deals with Bcl2. Nature of the test: RT-PCR gene expression, Bcl2, in HCT116. The test is classed as cell-based, human. Conditions: HCT116, 6.76 µg/mL, 48 h, relative to untreated control. As for the experimental part: as §2, §3
For test [2], the system named is HCT116 cells. Kind of test: Flow cytometric analysis of cell cycle. Conditions: HCT116, 6.76 µg/mL, 48 h. Format: cell-based, human. The method, then:
(§4) Chalcone 7f was selected for more investigations, in attempts to find its molecular action on cancer cells. It illustrated high and very interesting cytotoxicity toward the tested colon cancer cell line (HCT116) as mentioned in the above MTT assay data (Table 1). A flow cytometric report was utilized in this recent paper to investigate the effect of our novel acrylonitrile compound 7f on the cell cycle, HCT116 cells were treated with compound 7f at a dose of (6.76 µg/mL) for 48 h and subjected to flow cytometric analysis.
In this study, non-treated HCT116 cells were used as a negative control. After the incubation period of 48 h, HCT116 treated cells were centrifuged at 1,200 rpm at 4 °C for 10 min. After disposing of the supernatant, the cell pellet was suspended in phosphate-buffered saline (PBS) and then centrifuged at 1200 rpm for 10 min. 70% cold ethanol was added overnight to allow the fixation of the cell pellet. After the step of centrifugation, the propidium iodide (PI) mixture was added to the cell pellet for 30 min at room temperature in the darkness. Subsequently, cells were subjected to Epics XL-MCL flow cytometer (BeckmanCoulter, Miami, FL) for analysis of DNA content. The percentage of cells in different phases of the cell cycle was analyzed by Multicycle software (Phoenix Flow Systems, San Diego, CA).
On the technique in general: A flow cytometer gives signals particle by particle.

For test [3], the system named is HCT116 cells. Nature of the test: Flow cytometric analysis of apoptosis (Annexin V-FITC/PI). Conditions: HCT116, 7f treated. Format: cell-based, human. The method, then:
as §4
The percentage of apoptotic cells was detected using Annexin V-FITC kit catalogue number (#K101-25). Briefly, 5 × 10^5 of HCT116 cells were collected by centrifugation. Then, the cell pellet was suspended in 500 µL of 1X Binding Buffer. Afterward, 5 µL of Annexin V-FITC and 5 µL of propidium iodide were added to cells and kept at room temperature for 5 min in the dark[89]–[91]. Finally, the percentage of the apoptotic cells was detected by flow cytometry using the FITC signal detector(usually FL-1) and PI staining by the phycoerythrin emission signal detector (usually FL-2).

Another test relates to lung carcinoma (A549). Nature of the test: Cytotoxic MTT assay, A549. Format: cell-based. The settings on record: Homo sapiens, 48 h treatment. The method, then:
as §1

For orientation: IC50 means the concentration that inhibits the measured activity by half. Read a low IC50 as higher potency. With `N#C/C(=C\c1cn(-c2ccccc2)nc1-c1ccc([N+](=O)[O-])cc1)C(=O)c1c[nH]c2ccccc12` [Compound 7f, (E)-2-(1H-Indole-3-carbonyl)-3-(3-(4-nitrophenyl)-1-phenyl-1H-pyrazol-4-yl)acrylonitrile], the “Selectivity index (SI) = IC50 in normal cells/IC50 in tumor cells” value in test [1] (HFB4 versus HCT116) came out at 8.4. Moreover, the IC50 in test [1] (Homo sapiens, HCT-116, MTT, 48 h treatment) was 6.76 µg/mL (≈ 14.7 µM); in the test on lung carcinoma (A549) it was > 100 µg/mL. The “RT-PCR fold change CDK4” value in the test with CDK4 was 0.454 fold. The “RT-PCR fold change bcl2” value with Bcl2 was found to be 0.351 fold. Besides, in the test with HCT116 cells [2] (control 13.68%), the “DNA content in G2/M phase (%DIP G2/M)” value is reported as 2.55%. Also, the “cells in S phase (%DIP S)” value in the test on HCT116 cells [2] (control 41.04%) turned out to be 46.12%. The “cell accumulation in G1 phase (%DIP G1)” value in the test on HCT116 cells [2] (control 45.28%) is 51.33%. Further, the early apoptotic induction with HCT116 cells [3] (control 0.32%) came to 21.38%. This compound also had a necrosis in the test with HCT116 cells [3] (control 1.12%) of 6.82%.
